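Protocol summary: plate cells (96-well), add compound at 5 concentrations, incubate 48 h, interpolate endpoints linearly. GI50 is the concentration that inhibits growth by half.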 Activity calls are given as the source filed them. No stated cut-off is given here; in the data, active = GI50 up to about 1.1 µM and inactive = higher.
How the values were obtained:
Assay in all cases: growth of human tumour cells (NCI), 48 h
[1] = system: HOP-62
[2] = system: 786-0
[3] = system: SF-539
[4] = system: M14
[5] = system: SN12C
[6] = system: IGROV-1
[7] = system: NCI-H522
[8] = system: ACHN
[9] = system: SF-295
[10] = system: HCC 2998
[11] = system: MDA-MB-435
[12] = system: Malme-3M
[13] = system: OVCAR-5
[14] = system: OVCAR-8
[15] = system: HT-29
[16] = system: UACC-257
[17] = system: NCI-H460
[18] = system: SNB-75
[19] = system: DU-145
[20] = system: LOX IMVI
[21] = system: OVCAR-3
[22] = system: NCI-H226
[23] = system: SF-268
[24] = system: SK-OV-3
[25] = system: RXF 393
[26] = system: MDA-N
[27] = system: T47D
[28] = system: HCT-116
[29] = system: CAKI-1
[30] = system: KM12
[31] = system: Hs-578T
[32] = system: SNB-19
[33] = system: HOP-92
[34] = system: TK-10
[35] = system: EKVX
[36] = system: SW-620
[37] = system: HCT-15
[38] = system: COLO 205
[39] = system: UO-31
[40] = system: SK-MEL-5
[41] = system: NCI-H23
[42] = system: SR
[43] = system: SK-MEL-28
[44] = system: MCF7
[45] = system: MDA-MB-231
[46] = system: U-251
[47] = system: RPMI-8226
[48] = system: BT-549
[49] = system: HL-60
[50] = system: A549
[51] = system: A498
[52] = system: SK-MEL-2
[53] = system: NCI/ADR-RES
[54] = system: OVCAR-4
[55] = system: PC-3
[56] = system: UACC-62
[57] = system: K562
[58] = system: MOLT-4

For `O=C(CC(C(=O)c1ccco1)c1cccs1)c1cccs1` (centres undefined), the GI50 [1] was 87.7 µM (inactive), the GI50 [2] was > 100 µM (inactive) and the GI50 [3] was > 100 µM (inactive). For the same molecule, the GI50 [4] was 46.6 µM (inactive), the GI50 [5] was 66.8 µM (inactive) and the GI50 [6] was 65.6 µM (inactive). For the same molecule, the GI50 [7] was 41.9 µM (inactive), the GI50 [8] was 58.7 µM (inactive) and the GI50 [9] was 38.8 µM (inactive). For the same molecule, the GI50 [10] was 49.2 µM (inactive), the GI50 [11] was 35.9 µM (inactive) and the GI50 [12] was 96.2 µM (inactive). For the same molecule, the GI50 [13] was 61.4 µM (inactive), the GI50 [14] was 44.7 µM (inactive) and the GI50 [15] was 37.9 µM (inactive). The GI50 [16] was 24.8 µM (inactive), the GI50 [17] was 80.5 µM (inactive) and the GI50 [18] was 44.4 µM (inactive). The GI50 [19] was > 100 µM (inactive), the GI50 [20] was 37.3 µM (inactive) and the GI50 [21] was 40.7 µM (inactive). The GI50 [22] was > 100 µM (inactive), the GI50 [23] was 57.9 µM (inactive) and the GI50 [24] was 87.1 µM (inactive). The GI50 [25] was 51.3 µM (inactive), the GI50 [26] was 37.6 µM (inactive) and the GI50 [27] was 28.2 µM (inactive). For the same molecule, the GI50 [28] was 32.9 µM (inactive), the GI50 [29] was > 100 µM (inactive) and the GI50 [30] was 40.6 µM (inactive). The GI50 [31] was 49.9 µM (inactive), the GI50 [32] was > 100 µM (inactive) and the GI50 [33] was 59.4 µM (inactive). The GI50 [34] was > 100 µM (inactive), the GI50 [35] was 24.9 µM (inactive) and the GI50 [36] was 94.8 µM (inactive). The GI50 [37] was 50.2 µM, the GI50 [38] was 51.9 µM (inactive) and the GI50 [39] was 30.7 µM (inactive). For the same molecule, the GI50 [40] was 32.4 µM (inactive), the GI50 [41] was 58.5 µM (inactive) and the GI50 [42] was 34.6 µM (inactive). The GI50 [43] was 42.7 µM (inactive), the GI50 [44] was 46.8 µM (inactive) and the GI50 [45] was > 100 µM (inactive). For the same molecule, the GI50 [46] was 67.5 µM (inactive), the GI50 [47] was 55.7 µM (inactive) and the GI50 [48] was 46.5 µM (inactive). The GI50 [49] was 27.2 µM (inactive), the GI50 [50] was 41.7 µM (inactive) and the GI50 [51] was 96.2 µM (inactive). For the same molecule, the GI50 [52] was 37.4 µM (inactive), the GI50 [53] was 36.1 µM (inactive) and the GI50 [54] was 36 µM (inactive). The GI50 [55] was 42.5 µM (inactive) and the GI50 [56] was 36.3 µM (inactive).

`O=C1O[C@]2(c3ccccc3)C(c3ccccc3)=C[C@]2(C(=O)c2ccccc2)C1=O` was tested, and the GI50 [1] was 34 µM (inactive), the GI50 [2] was 26.2 µM (inactive) and the GI50 [3] was 23 µM (inactive). For the same molecule, the GI50 [4] was 32.3 µM (inactive), the GI50 [5] was 33.4 µM (inactive) and the GI50 [6] was 33.1 µM (inactive). The GI50 [7] was 21.1 µM (inactive), the GI50 [8] was 35.2 µM (inactive) and the GI50 [9] was 47 µM (inactive). For the same molecule, the GI50 [10] was 20.3 µM (inactive), the GI50 [11] was 37.2 µM (inactive) and the GI50 [12] was 65.2 µM (inactive). The GI50 [13] was > 100 µM (inactive), the GI50 [14] was 29.8 µM (inactive) and the GI50 [15] was 55 µM (inactive). For the same molecule, the GI50 [57] was 23 µM (inactive), the GI50 [16] was 30.3 µM (inactive) and the GI50 [17] was 27.1 µM (inactive). For the same molecule, the GI50 [18] was 3.92 µM (inactive), the GI50 [19] was 0.292 µM (active) and the GI50 [20] was 28.9 µM (inactive). The GI50 [58] was 4.02 µM (inactive), the GI50 [21] was 32.6 µM (inactive) and the GI50 [22] was 29.9 µM (inactive). The GI50 [23] was 38 µM (inactive), the GI50 [24] was 42.4 µM (inactive) and the GI50 [25] was 0.05 µM (active). The GI50 [26] was 31.9 µM (inactive), the GI50 [27] was 1.12 µM (inactive) and the GI50 [28] was 28.6 µM (inactive). For the same molecule, the GI50 [29] was 36.9 µM (inactive), the GI50 [30] was 35.8 µM (inactive) and the GI50 [31] was 39.2 µM (inactive). For the same molecule, the GI50 [32] was 36.6 µM (inactive), the GI50 [33] was 24 µM (inactive) and the GI50 [34] was 27 µM (inactive). For the same molecule, the GI50 [35] was 34 µM (inactive), the GI50 [36] was 19.1 µM (inactive) and the GI50 [37] was 29.5 µM. The GI50 [38] was 48.2 µM (inactive), the GI50 [39] was 27.9 µM (inactive) and the GI50 [40] was 31.8 µM (inactive). The GI50 [41] was 33.7 µM (inactive), the GI50 [42] was 10.7 µM (inactive) and the GI50 [43] was 35.6 µM (inactive). For the same molecule, the GI50 [44] was 28.4 µM (inactive), the GI50 [45] was 32.3 µM (inactive) and the GI50 [46] was 31.6 µM (inactive). For the same molecule, the GI50 [47] was 25.8 µM (inactive), the GI50 [48] was 36.1 µM (inactive) and the GI50 [49] was 5.98 µM (inactive). For the same molecule, the GI50 [50] was 37.2 µM (inactive), the GI50 [51] was 35.5 µM (inactive) and the GI50 [52] was 27.2 µM (inactive). The GI50 [53] was 31.6 µM (inactive), the GI50 [54] was 39.1 µM (inactive) and the GI50 [55] was 39.1 µM (inactive). The GI50 [56] was 29.8 µM (inactive).

Reference: ChEMBL document CHEMBL1201862, “PubChem BioAssay data set” (2004)
